These results are taken from patent publication US9333265B2, “Organic-inorganic hybrid composite of polymerized nitroxide compound and inorganic particles” (UNIVERSITY OF TSUKUBA, priority 2012, dated 2016).

Data set [1] is described as follows: Blood uptake suppression after intraperitoneal administration (ESR signal in blood). In kind it is in vivo. From the text:
Normally, low-molecular-weight compounds are taken up into the blood after intraperitoneal administration, and are at risk of dispersing throughout the body.

The conditions of data set [2]: high-dosage administration; cited from earlier work.

For `CC1(C)CCCC(C)(C)N1[O]` [TEMPO], the “presence in blood after intraperitoneal administration (ESR signal)” value in data set [1] was “present in blood for an hour or more”. Besides, the side-effects entry in data set [2] is “reduced blood pressure and inhibition of the mitochondrial energy-transfer system”.
